Key:
[1] = Electronic absorption spectra in dichloromethane; assay type: physicochemical
Description: The electronic absorption spectra of PHOTOFRIN® (a porphyrin analog), HPPH (a chlorin bearing a five-membered isocyclic ring) and the purpurinimide 9 (a chlorin with an expanded, six-membered fused imide ring) were measured in dichloromethane at the same molar concentrations.

[2] = test system: RIF tumors; experiment: In vivo photosensitizing (PDT) efficacy, tumor response in C3H mice transplanted with RIF tumors; parameters: species or system mouse
Description: In brief, C3H/HEJ mice were subjected to intradermal injection with 2×10^5 RIF cells in […] HBSS w/o Ca^+2 and magnesium, into the flank and allowed to grow until they were 4-5 mm in diameter. The day before tumors were treatment size, the mice were injected with variable doses of substantially pure photosensitizers (1.0 mg/kg, 0.4 mg/kg). […] The mice (6 mice/group in two groups) were checked daily, the tumors were measured using two orthogonal measurements L and W (perpendicular to L) and the volumes were calculated using the formula V=L×W^2/2 and recorded. Mice were considered cured if there was no palpable tumor at 90 days post-PDT treatment.
In the control group, six mice were exposed to light without injecting any photosensitizer.
The in vivo photosensitizing efficacy of bacteriochlorins 16 and 18 was determined in C3H mice (5 mice/group) at variable concentration up to 1.0 μmol/Kg.

[3] = Stability of Schiff base 17 / amine 18 (in vivo reflectance spectroscopy); details: 17: in vivo, converted into acetyl analog 15, determined by in vivo reflectance spectroscopy
Description: For example, when the reaction was performed at elevated temperature, the N-fluorinated derivative 15 and the corresponding Schiff base 17 (obtained from the reaction of the 3-acetyl group with an amine) was isolated in almost equal ratio. However, at low temperature, 3-acetyl-N-substituted-bacteriopurpurinimide 15 was isolated as a major product. Bacteriochlorin 15 on reaction with sodium borohydride and then with HBr gas followed by a reaction with n-butyl alcohol produced the corresponding butyl ether derivative 16. […] However, reduction of 17 with sodium borohydride at room temperature produced stable amine 18. See Scheme 2.

[4] = dose 1.0 μmol/Kg, day 90, C3H mice

HPPH
red-shift compared with PHOTOFRIN [1]: 30 nm | ε (long wavelength absorption) ([1]; same molar concentrations): 45,000 | λmax (long wavelength absorption) ([1]; same molar concentrations): 660 nm

CCC1c2cc3[nH]c4c(c5nc(cc6[nH]c(cc(n2)C1C)c(C(C)NCc1cc(C(F)(F)F)cc(C(F)(F)F)c1)c6C)[C@@H](C)[C@@H]5CCC(=O)OC)C(=O)N(Cc1cc(C(F)(F)F)cc(C(F)(F)F)c1)C(=O)c4c3C (stereo partly shown) [compound 18]
mice tumor free [2, 4]: 3/5 | tumor response [2, 4]: 60% | stability [3]: stable

purpurin-18-N-butyl-3-O-{1′-3″,5″-bis(trifluoromethyl)-benzyl ether}imide [compound 12]
tumor response ([2]; dose 0.4 mg/kg, light 706 nm, 135 J/cm2 at 24 hours post-injection, day 90, C3H/HeJ mice): 66%

From patent USRE43274E1, “Fluorinated photosensitizers related to chlorins and bacteriochlorins for photodynamic therapy” (Health Research, Inc., priority 2002, dated 2012)
